What was measured:
recombinant CETP = biological target: T1, recombinant CETP (Homo sapiens, UniProt P11597); assay: RTA assay using recombinant CETP (2% RTA); format: biochemical; details: 2% human serum
T1 sequence (P11597 18-493): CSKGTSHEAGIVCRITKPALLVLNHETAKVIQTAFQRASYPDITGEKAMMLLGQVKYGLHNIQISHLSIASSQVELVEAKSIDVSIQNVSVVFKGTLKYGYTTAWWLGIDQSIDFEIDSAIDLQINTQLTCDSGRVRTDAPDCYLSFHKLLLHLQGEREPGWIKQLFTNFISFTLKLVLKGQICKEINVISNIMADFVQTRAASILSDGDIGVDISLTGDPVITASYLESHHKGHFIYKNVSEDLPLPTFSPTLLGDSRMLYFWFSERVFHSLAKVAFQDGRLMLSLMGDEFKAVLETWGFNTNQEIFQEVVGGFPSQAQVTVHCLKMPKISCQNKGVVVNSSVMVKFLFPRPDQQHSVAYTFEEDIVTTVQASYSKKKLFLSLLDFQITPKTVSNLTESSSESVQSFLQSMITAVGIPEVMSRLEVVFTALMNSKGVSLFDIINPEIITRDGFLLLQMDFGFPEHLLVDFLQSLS
Method: (§1) In Vitro Radioactive Assays of CETP-Catalyzed CE and TG Transfer (RTA Assay)
(§2) Reagents and sources are: [3H] cholesteryl oleate (GE #TRK.886), [3H] Triolein (Perkin-Elmer NET-431), Butylated hydroxyl toluene (Aldrich, #D4740-4), DOPC (Sigma, #P6354), Sodium Bromide (Fisher scientific #S255-500), PEG 8000 (Fisher, #BP233-1), and human HDL (Intracel Corp #RP-036).
(§3) An in vitro assay for determining IC50's to identify compounds that inhibit CETP transfer activity is performed based on a modification of a published method (Morton and Zilversmit, (1981) A plasma inhibitor of triglyceride and cholesteryl ester transfer activities, J. Biol. Chem. 256(23), 11992-11995). The ability of inhibitors to alter CETP activity is performed using two different assays: one using recombinant CETP and one using an endogenous plasma source of CETP. Both assays measure the transfer of [3H] cholesteryl oleate or [3H] triolein from exogenous LDL to HDL.
(§4) Radiolabeled donor particles are generated by first combining 100 μl of 200 μM butylated hydroxyl toluene in CHCl3, 216 μL of 21.57 mM DOPC in EtOH, and either 500 μCi [3H]-triolein (Perkin Elmer #NET-431) or 500 μCi [3H]-cholesteryl oleate (GE #TRK886) in a glass tube. Reagents are mixed, dried under nitrogen, and then resuspended in 2 mL of 50 mM Tris, 27 μM EDTA at pH 7.4. After a brief vortex, the solution is sonicated until clear and mixed with 20 mL of fresh human serum. The mixture is incubated overnight at 37° C. The [3H] labeled LDL substrate is separated at 1.063 g/ml density by sequential ultracentrifugal flotation in NaBr according to the method of Havel, Eder, et al., 1955, and Chapman, Goldstein, et al., 1981. Once isolated the particles are dialyzed 3× in CETP buffer (50 mM Tris, pH 7.4, 100 mM NaCl, 1 mM EDTA). Human HDL is purchased from Intracel and used as the acceptor particles.
(§5) Transfer assays are performed in a 96-well v-bottom polypropylene plate. For the RTA using recombinant CETP (2% RTA), an assay cocktail is prepared with the final concentrations 128 μg/mL HDL, 20 nM rCETP, 2% human serum, and 1×CETP buffer. 1 μL of each test compound diluted in DMSO is added to 47 μL of assay cocktail per well and incubated at 37° C. for 1 hour. To initiate the transfer reaction, 2 μL radiolabeled LDL is added. After an additional 60 min of incubation at 37° C., the transfer action is terminated by precipitation of LDL with an equal volume of 20% W/V PEG 8000. The plates are centrifuged at 2000 rpm for 30 minutes at 4° C. A 40 μL aliquot of the HDL-containing supernatant is transferred to a Packard Optiplate™ with 200 μL of MicroScint™ 20. After mixing, plates are counted by liquid scintillation. Counts present in the supernatant for blanks (wells containing only HDL acceptor, CETP buffer and DMSO) are subtracted from those containing test compounds and used to correct for non-specific transfer.
(§6) Comparison of the counts of samples with inhibitors to an uninhibited (DMSO only) positive control yield a percent inhibition. A plot of percent inhibition vs. log of inhibitor concentration, fit to a Sigmoidal 4 parameter equation is used to calculate IC50.

[1] = biological target: T2, endogenous CETP from human serum (Homo sapiens, UniProt P11597); assay: RTA assay using endogenous CETP from serum (95% RTA); format: biochemical; details: 95% human serum
T2 construct: yielding a concentration of approximately 15 nM endogenous CETP in the assay; from tissue; host or cells: human serum
T2 sequence (P11597 18-493): T1 sequence (P11597 18-493)
Method: as §1, §2, §3, §4, §5
For the transfer assay using endogenous CETP from serum (95% RTA), the same procedure is used except that human serum is added such that a final concentration of serum of 95% of the total assay volume is achieved, yielding a concentration of approximately 15 nM endogenous CETP in the assay. This is then combined with HDL and CETP buffer and the reaction proceeds as above and is terminated as described.
as §6

Structure (SMILES) | IC50 (recombinant CETP) [nM] | IC50 [1] [nM]
O[C@H](CN1CC(Cc2cccc(OC(F)(F)F)c2)(c2cccc(C(F)(F)F)c2)c2ccccc21)C(F)(F)F (mixture of isomers) [Example 1, (2R)-1,1,1-trifluoro-3-(3-(3-(trifluoromethoxy)benzyl)-3-(3-(trifluoromethyl)-phenyl)indolin-1-yl)propan-2-ol] | 28 | 1220
O[C@H](CN1CC(Cc2cccc(OC(F)(F)F)c2)(c2cccc(Cl)c2)c2ccccc21)C(F)(F)F (mixture of isomers) [Example 4, (2R)-3-(3-(3-chlorophenyl)-3-(3-(trifluoromethoxy)benzyl)indolin-1-yl)-1,1,1-trifluoropropan-2-ol] | 466 | 1380
COc1cccc(-c2cccc(C3(Cc4cccc(OC(F)(F)F)c4)CN(C[C@@H](O)C(F)(F)F)c4ccccc43)c2)c1 (mixture of isomers) [Example 25, (2R)-1,1,1-trifluoro-3-(3-(3′-methoxy-[1,1′-biphenyl]-3-yl)-3-(3-(trifluoromethoxy)benzyl)indolin-1-yl)propan-2-ol] | 1470 | 3130
O=C(O)c1ccc(-c2cccc(C3(Cc4cccc(OC(F)(F)F)c4)CN(C[C@@H](O)C(F)(F)F)c4ccccc43)c2)cc1 (mixture of isomers) [Example 26, 3′-(1-((R)-3,3,3-trifluoro-2-hydroxypropyl)-3-(3-(trifluoromethoxy)-benzyl)indolin-3-yl)-[1,1′-biphenyl]-4-carboxylic acid] | 1350 | 3860
O[C@H](CN1CC(Cc2cccc(OC(F)(F)F)c2)(c2cccc(N3CCOCC3)c2)c2ccccc21)C(F)(F)F (mixture of isomers) [Example 31, (2R)-1,1,1-trifluoro-3-(3-(3-morpholinophenyl)-3-(3-(trifluoromethoxy)benzyl)indolin-1-yl)propan-2-ol] | 146 | 643
O[C@H](CN1CC(Cc2cccc(OC(F)(F)F)c2)(c2cccc(N[C@@H]3CCOC3)c2)c2ccccc21)C(F)(F)F (mixture of isomers) [Example 32] | 252 | 1430
O[C@H](CN1CC(Cc2ccccc2)(c2cccc(OC(F)(F)F)c2)c2ccccc21)C(F)(F)F (stereo partly drawn) [Example 2] | 238 | 746
O[C@H](CN1CC(Cc2cccc(Br)c2)(c2cccc(OC(F)(F)F)c2)c2ccccc21)C(F)(F)F (stereo partly drawn) [Example 3, (2R)-3-(3-(3-bromobenzyl)-3-(3-(trifluoromethoxy)phenyl)indolin-1-yl)-1,1,1-trifluoropropan-2-ol] | 67 | 308
COc1ccc(CC2(c3cccc(OC(F)(F)F)c3)CN(C[C@@H](O)C(F)(F)F)c3ccccc32)cc1 (stereo partly drawn) [Example 5] | 2150 | 9680
O[C@H](CN1CC(Cc2cccc(OC(F)(F)F)c2)(c2cccc(OC(F)(F)F)c2)c2cc(F)ccc21)C(F)(F)F (stereo partly drawn) [Example 6] | – | 763
O[C@H](CN1CC(Cc2cccc(OC(F)(F)F)c2)(c2ccc(OC(F)(F)F)cc2)c2ccccc21)C(F)(F)F (stereo partly drawn) [Example 7] | – | 232
O[C@H](CN1CC(Cc2cccc(OC(F)(F)F)c2)(c2cccc(OC(F)(F)C(F)F)c2)c2ccccc21)C(F)(F)F (stereo partly drawn) [Example 8] | 25 | 94
O[C@H](CN1CC(Cc2ccccc2OC(F)(F)F)(c2cccc(OC(F)(F)F)c2)c2ccccc21)C(F)(F)F (stereo partly drawn) [Example 9] | 1210 | 3370
O[C@H](CN1CC(Cc2cccc(OC(F)(F)F)c2)(c2cccc(OC(F)(F)F)c2)c2ccccc21)C(F)(F)F (stereo partly drawn) [Example 10] | – | 69
Cc1cccc2c1N(C[C@@H](O)C(F)(F)F)CC2(Cc1cccc(OC(F)(F)F)c1)c1cccc(OC(F)(F)F)c1 (stereo partly drawn) [Example 11] | 155 | 491
O[C@H](CN1CC(Cc2cccc(OC(F)(F)F)c2)(c2cccc(OC(F)(F)F)c2)c2cccc(F)c21)C(F)(F)F (stereo partly drawn) [Example 12] | 67 | 222

Structure (SMILES) | IC50 (recombinant CETP) [nM] | IC50 [1] [nM]
O[C@H](CN1CC(Cc2cccc(OC(F)(F)F)c2)(c2cc(F)cc(C(F)(F)F)c2)c2ccccc21)C(F)(F)F (stereo partly drawn) [Example 13] | 102 | 2510
O[C@H](CN1CC(Cc2cccc(OC(F)(F)F)c2)(c2ccc(F)c(C(F)(F)F)c2)c2ccccc21)C(F)(F)F (stereo partly drawn) [Example 14] | 277 | 685
O[C@H](CN1CC(Cc2ccc(F)cn2)(c2cccc(OC(F)(F)F)c2)c2cccc(F)c21)C(F)(F)F (stereo partly drawn) [Example 15] | 2860 | –
Cc1csc(CC2(c3cccc(OC(F)(F)F)c3)CN(C[C@@H](O)C(F)(F)F)c3c(F)cccc32)n1 (stereo partly drawn) [Example 16] | 296 | 2000
O[C@H](CN1CC(Cc2cccc(C(F)(F)F)c2)(c2cccc(OC(F)(F)F)c2)c2cccc(F)c21)C(F)(F)F (stereo partly drawn) [Example 17] | 66 | 706
Cc1ccc(C2(Cc3cccc(OC(F)(F)F)c3)CN(C[C@@H](O)C(F)(F)F)c3ccccc32)cc1Cl (stereo partly drawn) [Example 18] | 161 | 1350
O[C@H](CN1CC(Cc2cccc(OC(F)(F)F)c2)(c2ccc(F)c(Cl)c2)c2ccccc21)C(F)(F)F (stereo partly drawn) [Example 19] | 883 | 3740
O[C@H](CN1CC(Cc2cccc(OC(F)(F)F)c2)(c2ccnc(C(F)(F)F)c2)c2ccccc21)C(F)(F)F (stereo partly drawn) [Example 20] | 447 | 2600
CCOc1cc(C2(Cc3cccc(OC(F)(F)F)c3)CN(C[C@@H](O)C(F)(F)F)c3ccccc32)ccn1 (stereo partly drawn) [Example 21] | 60 | 283
CC(C)Oc1cc(C2(Cc3cccc(OC(F)(F)F)c3)CN(C[C@@H](O)C(F)(F)F)c3ccccc32)ccn1 (stereo partly drawn) [Example 22] | 43 | 101
CCOc1cc(C2(Cc3cccc(OC)c3)CN(C[C@@H](O)C(F)(F)F)c3ccccc32)ccn1 (stereo partly drawn) [Example 23] | 249 | 681
O[C@H](CN1CC(Cc2cccc(OC(F)(F)F)c2)(c2ccnc(N3CCOCC3)c2)c2ccccc21)C(F)(F)F (stereo partly drawn) [Example 24] | 244 | 3120
Cc1cc(C(=O)O)ccc1-c1cccc(C2(Cc3cccc(OC(F)(F)F)c3)CN(C[C@@H](O)C(F)(F)F)c3ccccc32)c1 (stereo partly drawn) [Example 27] | 378 | 4070
Cc1ccc(C2(Cc3cccc(OC(F)(F)F)c3)CN(C[C@@H](O)C(F)(F)F)c3ccccc32)cc1-c1ccc(C(=O)O)cc1 (stereo partly drawn) [Example 28] | 1510 | –
Cc1cc(C(=O)O)ccc1-c1cc(C2(Cc3cccc(OC(F)(F)F)c3)CN(C[C@@H](O)C(F)(F)F)c3ccccc32)ccc1C (stereo partly drawn) [Example 29] | 1690 | –
Cc1cc(C(=O)O)ccc1-c1cc(C2(Cc3cccc(OC(F)(F)F)c3)CN(C[C@@H](O)C(F)(F)F)c3ccccc32)ccc1F (stereo partly drawn) [Example 30] | 328 | –
